Measured values as given in ChEMBL document CHEMBL1123474, “Neuroleptics from the 4a,9b-cis- and 4a,9b-trans-2,3,4,4a,5,9b-hexahydro-1H-pyrido[4,3-b]indole series. 2” (J Med Chem, 1986).

Columns and labels:
[1] = system: Rattus norvegicus; assay: Inhibition of d-amphetamine induced stereotypy in rats; i.p. treatment 1 hr before amphetamine.; assay type: functional
[2] = system: Rattus norvegicus; assay: Inhibition of d-amphetamine induced stereotypy in rats; i.p. treatment 24 hr before amphetamine.; assay type: functional
[3] = system: Rattus norvegicus; assay: Inhibition of d-amphetamine induced stereotypy in rats; i.p. treatment 5 hr before amphetamine.; assay type: functional
[4] = organism: Rattus norvegicus; assay: animal or person; settings: ip
[5] = organism: Rattus norvegicus; assay: animal or person; settings: ip; remark: listed apart in the source
[6] = organism: Rattus norvegicus; assay: animal or person; settings: ip; remark: listed apart in the source
[7] = Rattus norvegicus, ip, read-out: ED50

| Structure (SMILES) | ED50 [1, 7] [mg/kg] | ED50 [2, 7] [mg/kg] | ED50 [3, 7] [mg/kg] | also measured |
| --- | --- | --- | --- | --- |
| COc1ccc(/C=C/CCN2CC[C@@H]3[C@@H](C2)c2cc(F)ccc2N3c2ccc(F)cc2)cc1 | > 3.2 | ~0.32 | ~0.32 | – |
| Fc1ccc(/C=C/CCN2CC[C@@H]3[C@@H](C2)c2cc(F)ccc2N3c2ccc(F)cc2)cc1 | > 1 | 0.57 | 0.57 | – |
| OC(CCCN1CC[C@@H]2[C@@H](C1)c1ccccc1N2c1ccc(F)cc1)c1ccc(F)cc1 (some centres not stated) | ~0.32 | 0.032 | 0.032 | – |
| OCCCCN1CC[C@@H]2[C@@H](C1)c1cc(F)ccc1N2c1ccc(F)cc1 | 0.03 | ~1 | 0.009 | – |
| Fc1ccc(N2c3ccc(F)cc3[C@@H]3CNCC[C@H]32)cc1 | > 3.2 | – | > 3.2 | – |
| CCN1CC[C@@H]2[C@@H](C1)c1cc(F)ccc1N2c1ccc(F)cc1 | 0.14 | > 10 | 0.18 | – |
| OC(CCCN1CC[C@H]2[C@@H](C1)c1ccccc1N2c1ccccc1)c1ccc(F)cc1 (some centres not stated) | > 32 | – | > 32 | – |
| OC(CCCN1CC[C@H]2[C@@H](C1)c1cc(F)ccc1N2c1ccc(F)cc1)c1ccc(F)cc1 (some centres not stated) | 22 | 9.1 | 1.1 | – |
| CN1CC[C@H]2[C@@H](C1)c1ccccc1N2c1ccccc1 | > 32 | – | > 32 | – |
| c1ccc(CN2CC[C@H]3[C@@H](C2)c2ccccc2N3c2ccccc2)cc1 | > 32 | – | > 32 | – |
| OC(CCCN1CC[C@@H]2[C@@H](C1)c1cc(F)ccc1N2c1ccc(F)cc1)c1ccc(F)cc1 (some centres not stated) | 0.41 | 0.03 | 0.03 | – |
| COc1ccc(C(O)CCCN2CC[C@@H]3[C@@H](C2)c2cc(F)ccc2N3c2ccc(F)cc2)cc1 (some centres not stated) | 0.36 | 0.1 | 0.01 | – |
| CN1CC[C@@H]2[C@@H](C1)c1cc(F)ccc1N2c1ccc(F)cc1 | 0.14 | > 3.2 | 0.23 | – |
| c1ccc(N2c3ccccc3[C@@H]3CNCC[C@@H]32)cc1 | > 32 | – | > 32 | – |
| O=C(CCCN1CC[C@@H]2[C@@H](C1)c1cc(F)ccc1N2c1ccc(F)cc1)c1ccc(F)cc1 | > 1 | 0.03 | 0.1 | – |
| OC(CCCN1CC[C@@H]2[C@@H](C1)c1cc(F)ccc1N2c1ccc(F)cc1)c1ccccc1 (some centres not stated) | 0.18 | 0.18 | – | ED50 ([3]; ip): 0.18 mg/kg |
| OC(CCCN1CC[C@@H]2[C@@H](C1)c1cc(F)ccc1N2c1ccccc1)c1ccc(F)cc1 (stereo in doubt; 24) | – | – | – | ED50 [1]: 0.23 mg/kg; ED50 [2]: 0.11 mg/kg; ED50 [3]: 0.08 mg/kg |
| OC(CCCN1CC[C@@H]2[C@@H](C1)c1cc(F)ccc1N2c1ccccc1)c1ccc(F)cc1 (stereo in doubt; 25) | – | – | – | ED50 [1]: 0.1 mg/kg; ED50 [2]: 0.032 mg/kg; ED50 [3]: ~0.032 mg/kg |
| CN1CC[C@@H]2Nc3ccccc3[C@@H]2C1 [CARBIDINE] | > 32 | – | > 32 | – |
| OC(CCCN1CCc2c(c3cc(F)ccc3n2-c2ccc(F)cc2)C1)c1ccc(F)cc1 (configuration not stated) [FLUTROLINE] | 0.1 | 0.32 | 0.1 | – |
| O=C(CCCN1CCC(O)(c2ccc(Cl)cc2)CC1)c1ccc(F)cc1 [HALOPERIDOL] | – | – | – | ED50 [4]: 0.1 mg/kg; ED50 [5]: > 3.2 mg/kg; ED50 [6]: 0.1 mg/kg |
